Measurements: patent US20220054513A1, “COMBINATION COMPOSITIONS COMPRISING A BETA-LACTAMASE INHIBITOR” (VenatoRx Pharmaceuticals, Inc., priority 2018, published 2022)
Like-named read-outs stand apart in the source and are kept apart here.

What was measured:
[1] = tested on: Acinetobacter baumannii-calcoaceticus species complex clinical isolates; assay: MIC of triple combinations (Compound 1, sulbactam, meropenem or cefepime), 141 clinical isolates; format: cell-based; conditions: Cmpd 1 at 4 μg/mL in combinations
Description: For a more comprehensive assessment of the ability of test compounds to potentiate sulbactam in triple combinations with β-lactams additional MIC assays were utilized.

[2] = tested on: multi-drug resistant Acinetobacter baumannii; assay: broth microdilution MIC of sulbactam, ampicillin, cefepime and combinations +/- Compound 1, panel of 51 Acinetobacter isolates

With CC1(C)[C@H](C(=O)O)N2C(=O)C[C@H]2S1(=O)=O [SUL, Sulbactam] the MIC ([1]; Acinetobacter, strain 1035788) was 32 µg/mL, the MIC ([1]; Acinetobacter, strain 1035794) was 64 µg/mL and the MIC ([1]; Acinetobacter, strain 1035808) was 32 µg/mL. For the same molecule, the MIC ([1]; Acinetobacter, strain 1035825) was 32 µg/mL, the MIC ([1]; Acinetobacter, strain 1035900) was 32 µg/mL and the MIC ([1]; Acinetobacter, strain 1036023) was 64 µg/mL. It also gave an MIC ([1]; Acinetobacter, strain 1036045) of 32 µg/mL, an MIC ([1]; Acinetobacter, strain 1036068) of 32 µg/mL and an MIC ([1]; Acinetobacter, strain 1036734) of 32 µg/mL. It also gave an MIC ([1]; Acinetobacter, strain 1036768) of 32 µg/mL, an MIC ([1]; Acinetobacter, strain 1036781) of 32 µg/mL and an MIC ([1]; Acinetobacter, strain 1036859) of 32 µg/mL. The MIC ([1]; Acinetobacter, strain 1036882) was 32 µg/mL, the MIC ([1]; Acinetobacter, strain 1036921) was 64 µg/mL and the MIC ([1]; Acinetobacter, strain 1037193) was 16 µg/mL. For the same molecule, the MIC ([1]; Acinetobacter, strain 1037211) was 64 µg/mL, the MIC ([1]; Acinetobacter, strain 1037251) was 32 µg/mL and the MIC ([1]; Acinetobacter, strain 1037256) was 16 µg/mL. The MIC ([1]; Acinetobacter, strain 1037294) was 64 µg/mL, the MIC ([1]; Acinetobacter, strain 1037462) was 16 µg/mL and the MIC ([1]; Acinetobacter, strain 1037593) was 32 µg/mL. The MIC ([1]; Acinetobacter, strain 1037618) was 64 µg/mL, the MIC ([1]; Acinetobacter, strain 1037714) was 8 µg/mL and the MIC ([1]; Acinetobacter, strain 1037731) was 16 µg/mL. It also gave an MIC ([1]; Acinetobacter, strain 1037732) of 16 µg/mL, an MIC ([1]; Acinetobacter, strain 1037738) of 16 µg/mL and an MIC ([1]; Acinetobacter, strain 1037747) of 32 µg/mL. It also gave an MIC ([1]; Acinetobacter, strain 1038418) of 16 µg/mL, an MIC ([1]; Acinetobacter, strain 1038439) of 16 µg/mL and an MIC ([1]; Acinetobacter, strain 1039502) of 64 µg/mL. The MIC ([1]; Acinetobacter, strain 1039514) was 16 µg/mL, the MIC ([1]; Acinetobacter, strain 1039515) was 32 µg/mL and the MIC ([1]; Acinetobacter, strain 1039518) was 16 µg/mL. It also gave an MIC ([1]; Acinetobacter, strain 1040900) of 8 µg/mL, an MIC ([1]; Acinetobacter, strain 1040901) of 64 µg/mL and an MIC ([1]; Acinetobacter, strain 1040916) of 32 µg/mL. The MIC ([1]; Acinetobacter, strain 1042182) was 16 µg/mL, the MIC ([1]; strain 1002960) was 128 µg/mL and the MIC ([1]; strain 1010331) was 128 µg/mL. The MIC ([1]; strain 1010950) was 128 µg/mL, the MIC ([1]; strain 1019086) was 128 µg/mL and the MIC ([1]; strain 1023031) was 128 µg/mL. For the same molecule, the MIC ([1]; strain 1037479) was 128 µg/mL, the MIC ([1]; strain 1040917) was 128 µg/mL and the MIC50 [2] was 16 µg/mL. For the same molecule, the MIC90 [2] was 64 µg/mL, the MIC ([2]; read-out: Minimum inhibitory concentration (MIC), strain 0273 (ADC-25, OXA-23, OXA-66)) was 32 µg/mL and the MIC ([2]; read-out: Minimum inhibitory concentration (MIC), strain 0274 (TEM-1D, ADC-25, OXA-66, OXA-72)) was 64 µg/mL. The MIC ([2]; read-out: Minimum inhibitory concentration (MIC), strain 0275 (TEM-1D, ADC-25, OXA-23, OXA-66)) was 64 µg/mL, the MIC ([2]; read-out: Minimum inhibitory concentration (MIC), strain 0276 (enzyme content ND)) was 8 µg/mL and the MIC ([2]; read-out: Minimum inhibitory concentration (MIC), strain 0277 (TEM-1B, OXA-65, OXA-24)) was 32 µg/mL. It also gave an MIC ([2]; read-out: Minimum inhibitory concentration (MIC), strain 0278 (TEM-1D, ADC-25, OXA-23, OXA-66)) of 32 µg/mL, an MIC ([2]; read-out: Minimum inhibitory concentration (MIC), strain 0279 (TEM-1D, ADC-25, OXA-23, OXA-66)) of 32 µg/mL and an MIC ([2]; read-out: Minimum inhibitory concentration (MIC), strain 0280 (TEM-1D, ADC-25, OXA-66)) of 128 µg/mL. For the same molecule, the MIC ([2]; read-out: Minimum inhibitory concentration (MIC), strain 0281 (TEM-1D, ADC-25, OXA-82)) was 32 µg/mL, the MIC ([2]; read-out: Minimum inhibitory concentration (MIC), strain 0282 (TEM-1D, ADC-25, OXA-23, OXA-66)) was 32 µg/mL and the MIC ([2]; read-out: Minimum inhibitory concentration (MIC), strain 0283 (TEM-1D, ADC-25, OXA-23, OXA-66)) was 16 µg/mL. The MIC ([2]; read-out: Minimum inhibitory concentration (MIC), strain 0284 (TEM-1B, OXA-65, OXA-24)) was 32 µg/mL, the MIC ([2]; read-out: Minimum inhibitory concentration (MIC), strain 0285 (TEM-1B, OXA-65, OXA-24)) was 16 µg/mL and the MIC ([2]; read-out: Minimum inhibitory concentration (MIC), strain 0286 (ADC-25, OXA-66, OXA-24)) was 16 µg/mL. It also gave an MIC ([2]; read-out: Minimum inhibitory concentration (MIC), strain 0287 (ADC-25, OXA-66, OXA-72)) of 64 µg/mL, an MIC ([2]; read-out: Minimum inhibitory concentration (MIC), strain 0288 (ADC-25, OXA-23, OXA-66)) of 32 µg/mL and an MIC ([2]; read-out: Minimum inhibitory concentration (MIC), strain 0289 (ADC-25, OXA-66, OXA-72)) of 16 µg/mL. The MIC ([2]; read-out: Minimum inhibitory concentration (MIC), strain 0290 (TEM-1D, ADC-25, OXA-23, OXA-66)) was 32 µg/mL, the MIC ([2]; read-out: Minimum inhibitory concentration (MIC), strain 0291 (TEM-1D, ADC-25, OXA-23, OXA-66)) was 16 µg/mL and the MIC ([2]; read-out: Minimum inhibitory concentration (MIC), strain 0292 (OXA-66, OXA-72)) was 32 µg/mL. The MIC ([2]; read-out: Minimum inhibitory concentration (MIC), strain 0293 (OXA-66, OXA-72)) was 16 µg/mL, the MIC ([2]; read-out: Minimum inhibitory concentration (MIC), strain 0294 (TEM-1B, OXA-23, OXA-65)) was 16 µg/mL and the MIC ([2]; read-out: Minimum inhibitory concentration (MIC), strain 0295 (TEM-1D, ADC-25, OXA-23, OXA-66)) was 32 µg/mL. It also gave an MIC ([2]; read-out: Minimum inhibitory concentration (MIC), strain 0296 (ADC-25, OXA-23, OXA-223)) of 64 µg/mL, an MIC ([2]; read-out: Minimum inhibitory concentration (MIC), strain 0297 (ADC-25, OXA-23, OXA-66)) of 8 µg/mL and an MIC ([2]; read-out: Minimum inhibitory concentration (MIC), strain 0298 (TEM-1D, ADC-25, OXA-66, OXA-237)) of 32 µg/mL. It also gave an MIC ([2]; read-out: Minimum inhibitory concentration (MIC), strain 0299 (PER-7, OXA-23, OXA-203)) of 32 µg/mL, an MIC ([2]; read-out: Minimum inhibitory concentration (MIC), strain 0300 (ADC-25, OXA-66)) of 2 µg/mL and an MIC ([2]; read-out: Minimum inhibitory concentration (MIC), strain 0301 (ADC-25, OXA-66, OXA-72)) of 16 µg/mL. For the same molecule, the MIC ([2]; read-out: Minimum inhibitory concentration (MIC), strain 0302 (OXA-23, OXA-82)) was 32 µg/mL, the MIC ([2]; read-out: Minimum inhibitory concentration (MIC), strain 0303 (ADC-25, OXA-23, OXA-66)) was 8 µg/mL and the MIC ([2]; read-out: Minimum inhibitory concentration (MIC), strain 0304 (ADC-25, OXA-66, OXA-72)) was 8 µg/mL. The MIC ([2]; read-out: Minimum inhibitory concentration (MIC), strain 0305 (TEM-1B, OXA-65, OXA-24)) was 8 µg/mL, the MIC ([2]; read-out: Minimum inhibitory concentration (MIC), strain 0306 (TEM-1B, OXA-65, OXA-24)) was 64 µg/mL and the MIC ([2]; read-out: Minimum inhibitory concentration (MIC), strain 0307 (ADC-25, OXA-66, OXA-237)) was 4 µg/mL. It also gave an MIC ([2]; read-out: Minimum inhibitory concentration (MIC), strain 0308 (TEM-1D, ADC-25, OXA-71)) of 32 µg/mL, an MIC ([2]; read-out: Minimum inhibitory concentration (MIC), strain 0309 (OXA-23, OXA-82)) of 8 µg/mL and an MIC ([2]; read-out: Minimum inhibitory concentration (MIC), strain 0310 (OXA-23, OXA-82)) of 32 µg/mL. For the same molecule, the MIC ([2]; read-out: Minimum inhibitory concentration (MIC), strain 0311 (ADC-25, OXA-23, OXA-82)) was 16 µg/mL, the MIC ([2]; read-out: Minimum inhibitory concentration (MIC), strain 0312 (OXA-69)) was 4 µg/mL and the MIC ([2]; read-out: Minimum inhibitory concentration (MIC), strain 0313 (TEM-1D, OXA-23, OXA-69)) was 32 µg/mL. It also gave an MIC ([2]; read-out: Minimum inhibitory concentration (MIC), strain 157834 (enzyme content ND)) of 2 µg/mL, an MIC ([2]; read-out: Minimum inhibitory concentration (MIC), strain 157842 (enzyme content ND)) of 2 µg/mL and an MIC ([2]; read-out: Minimum inhibitory concentration (MIC), strain 157876 (enzyme content ND)) of 4 µg/mL. It also gave an MIC ([2]; read-out: Minimum inhibitory concentration (MIC), strain 157901 (enzyme content ND)) of 16 µg/mL, an MIC ([2]; read-out: Minimum inhibitory concentration (MIC), strain 161750 (enzyme content ND)) of 8 µg/mL and an MIC ([2]; read-out: Minimum inhibitory concentration (MIC), strain 161752 (enzyme content ND)) of 4 µg/mL. For the same molecule, the MIC ([2]; read-out: Minimum inhibitory concentration (MIC), strain 161755 (enzyme content ND)) was 4 µg/mL, the MIC ([2]; read-out: Minimum inhibitory concentration (MIC), strain 161756 (enzyme content ND)) was 2 µg/mL and the MIC ([2]; read-out: Minimum inhibitory concentration (MIC), strain 161760 (enzyme content ND)) was 16 µg/mL. It also gave an MIC ([2]; read-out: Minimum inhibitory concentration (MIC), strain 161762 (enzyme content ND)) of 4 µg/mL.
